From patent US9006450B2 (Boehringer Ingelheim International GmbH, priority 2010, dated 2015)

Each compound was assayed against T1, human ACC2 (Homo sapiens, UniProt O00763) (assay: ACC2 assay, spectrophotometric 384 well assay (NADH-linked, coupled lactate dehydrogenase/pyruvate kinase)). Details: ACC2 assay, hACC2 construct lacking 128 N-terminal amino acids, 25° C., 340 nm; read-out: IC50.
T1 construct: made in house; host or cells: insect cells (baculoviral expression system)
Format: biochemical
Procedure: Spectrophotometric 384 Well Assay
Malonyl CoA formation by acetyl CoA carboxylases is stoichometrically linked to the consumption of ATP. ACC2 activity is measured in a NADH-linked kinetic method measuring ADP generated during the ACC reaction using a coupled lactate dehydrogenase/pyruvate kinase reaction.
For biological testing, a human ACC2 construct which lacks the 128 amino acids at the N-terminus for increased solubility (nt 385-6966 in Genbank entry AJ575592) is cloned. The protein is then expressed in insect cells using a baculoviral expression system. Protein purification is performed by anion exchange.
All compounds are dissolved in dimethyl sulfoxide (DMSO) to a concentration of 10 mM.
Assay reactions are then carried out in 384-well plates, with hACC2 in an appropriate dilution and at final assay concentrations (f.c.) of 100 mM Tris (pH 7.5), 10 mM trisodium citrate, 25 mM KHCO3, 10 mM MgCl2, 0.5 mg/mL BSA, 3.75 mM reduced L-glutathione, 15 U/mL lactate dehydrogenase, 0.5 mM phosphoenolpyruvate, 15 U/mL pyruvate kinase, compounds at different concentrations at final DMSO concentrations of 1%.
The enzymatic reaction is then started by addition of a mixture of NADH, acetyl Coenzyme A (both 200 μM f.c.) and ATP (500 uM f.c.). The decrease of the optical density (slope S) is then determined at 25° C. at a wavelength of 340 nm over 15 minutes in a spectrophotometric reader.
Each assay microtiter plate contains wells with vehicle instead of compound as controls for the non-inhibited enzyme (100% CTL; ‘HIGH’) and wells without acetyl-CoA as controls for non-specific NADH degradation (0% CTL; ‘LOW’).
The slope S is used for calculation of % CTL=(S(compound)−S('LOW'))/(S('HIGH')−S('LOW'))*100. Compounds will give values between 100% CTL (no inhibition) and 0% CTL (complete inhibition).
For IC50 value determination, the sample slope in the presence of the test compound after subtraction of the low controls (S(compound)−S('LOW')) are used.
An IC50 value is derived from the compound slopes at different dosages after subtraction of the low controls (S(compound)−S('LOW')) by non-linear regression curve fitting (equation y=(A+((B−A)/(1+((C/x)^D))))).

T1 sequence (O00763 129-2458 limits assumed): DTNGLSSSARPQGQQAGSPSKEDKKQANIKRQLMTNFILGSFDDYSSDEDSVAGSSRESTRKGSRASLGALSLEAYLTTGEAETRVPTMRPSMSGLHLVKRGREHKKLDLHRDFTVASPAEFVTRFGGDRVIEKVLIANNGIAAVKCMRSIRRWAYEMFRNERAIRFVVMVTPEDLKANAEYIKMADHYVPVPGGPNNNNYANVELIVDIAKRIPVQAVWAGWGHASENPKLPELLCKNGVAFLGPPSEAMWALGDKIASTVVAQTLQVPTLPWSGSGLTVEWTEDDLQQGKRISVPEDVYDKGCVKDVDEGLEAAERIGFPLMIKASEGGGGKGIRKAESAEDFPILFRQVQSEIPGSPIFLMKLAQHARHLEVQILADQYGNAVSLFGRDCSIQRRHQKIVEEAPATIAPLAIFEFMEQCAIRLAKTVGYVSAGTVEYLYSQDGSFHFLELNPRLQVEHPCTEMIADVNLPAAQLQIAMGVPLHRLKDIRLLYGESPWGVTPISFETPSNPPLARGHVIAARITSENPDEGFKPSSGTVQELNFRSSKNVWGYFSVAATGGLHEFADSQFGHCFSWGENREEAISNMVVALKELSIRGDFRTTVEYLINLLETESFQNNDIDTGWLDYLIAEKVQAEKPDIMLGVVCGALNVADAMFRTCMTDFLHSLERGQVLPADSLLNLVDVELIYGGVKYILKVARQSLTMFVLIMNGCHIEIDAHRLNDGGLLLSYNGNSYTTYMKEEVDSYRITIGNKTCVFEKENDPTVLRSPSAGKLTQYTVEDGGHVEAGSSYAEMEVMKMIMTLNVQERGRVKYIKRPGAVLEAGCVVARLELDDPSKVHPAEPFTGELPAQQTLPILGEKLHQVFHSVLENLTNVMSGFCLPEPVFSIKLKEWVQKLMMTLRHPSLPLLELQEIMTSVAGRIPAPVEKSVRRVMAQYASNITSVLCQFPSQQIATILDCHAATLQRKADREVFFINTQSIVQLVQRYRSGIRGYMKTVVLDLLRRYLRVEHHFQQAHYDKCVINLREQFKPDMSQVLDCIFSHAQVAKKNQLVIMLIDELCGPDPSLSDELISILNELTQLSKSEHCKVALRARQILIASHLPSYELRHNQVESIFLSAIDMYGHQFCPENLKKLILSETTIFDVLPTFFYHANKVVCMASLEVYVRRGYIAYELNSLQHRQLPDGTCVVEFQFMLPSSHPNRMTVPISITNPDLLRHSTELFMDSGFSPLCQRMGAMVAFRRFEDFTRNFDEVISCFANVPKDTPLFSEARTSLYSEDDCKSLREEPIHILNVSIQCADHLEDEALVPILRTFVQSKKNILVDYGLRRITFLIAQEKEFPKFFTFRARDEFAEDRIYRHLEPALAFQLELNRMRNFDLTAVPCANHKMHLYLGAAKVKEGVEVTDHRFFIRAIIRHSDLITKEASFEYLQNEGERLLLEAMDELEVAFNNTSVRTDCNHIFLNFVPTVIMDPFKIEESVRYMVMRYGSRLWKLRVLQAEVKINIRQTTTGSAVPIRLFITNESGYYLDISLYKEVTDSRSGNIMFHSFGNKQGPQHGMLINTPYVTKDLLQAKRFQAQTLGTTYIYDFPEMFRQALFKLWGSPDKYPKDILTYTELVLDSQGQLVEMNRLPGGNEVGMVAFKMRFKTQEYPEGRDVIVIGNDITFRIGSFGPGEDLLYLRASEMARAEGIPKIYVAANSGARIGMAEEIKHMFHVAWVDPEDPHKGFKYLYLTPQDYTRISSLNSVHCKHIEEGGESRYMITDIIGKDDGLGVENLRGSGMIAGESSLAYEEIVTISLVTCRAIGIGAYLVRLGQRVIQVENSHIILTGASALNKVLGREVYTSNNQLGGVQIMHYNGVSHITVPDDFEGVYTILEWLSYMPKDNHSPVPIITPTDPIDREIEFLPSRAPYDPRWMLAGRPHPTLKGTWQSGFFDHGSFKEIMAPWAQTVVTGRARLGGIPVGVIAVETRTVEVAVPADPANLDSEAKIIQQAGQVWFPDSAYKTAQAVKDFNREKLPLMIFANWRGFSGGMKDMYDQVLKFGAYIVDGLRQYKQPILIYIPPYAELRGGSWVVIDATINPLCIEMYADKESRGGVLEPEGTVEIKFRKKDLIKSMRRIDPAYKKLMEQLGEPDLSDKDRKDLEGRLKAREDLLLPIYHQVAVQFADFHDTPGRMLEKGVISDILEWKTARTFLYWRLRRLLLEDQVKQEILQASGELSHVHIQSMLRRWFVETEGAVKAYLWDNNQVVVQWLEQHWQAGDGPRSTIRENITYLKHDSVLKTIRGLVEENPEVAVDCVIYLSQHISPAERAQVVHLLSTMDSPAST

| IC50 [nM] | SMILES |
| --- | --- |
| 3100 | COc1cc(N2CCC(c3ccc([C@H](C)NC(C)=O)cc3)CC2)ccc1Cl [Example 1.162] |
| 130 | CC(=O)N[C@@H](C)c1ccc(C2CCN(c3ccc(OCc4ccccc4)nc3)CC2)cc1 [Example 1.54] |
| 1200 | CC(=O)N[C@@H](C)c1ccc(C2CCN(c3cc(O[C@H]4CCOC4)ncn3)CC2)cc1 [Example 11.17] |
| 130 | COc1cc(-c2cnc(N3CCC(c4ccc([C@H](C)NC(C)=O)cc4)CC3)nc2)ccn1 [Example 10.29] |
| 10400 | COC[C@H]1CCCN1C(=O)c1cnc(N2CCC(c3ccc([C@H](C)NC(C)=O)cc3)CC2)nc1 [Example 18.27] |
| 6200 | CC(=O)N[C@@H](C)c1ccc(C2CCN(c3ccnc(O[C@H]4CCOC4)n3)CC2)cc1 [Example 11.18] |
| 60 | C[C@H](NC(=O)N(C)C)c1ccc(C2CCN(c3ccc(OCCC4CC4)cc3)CC2)cc1 [Example 1.144] |
| 770 | CCCOc1ccc(N2CCC(c3ccc([C@H](C)NC(=O)C4CC4)cc3)CC2)c(OC)c1 [Example 1.116] |
| 100 | CC(=O)N[C@@H](C)c1ccc(C2CCN(c3ccc(OC(C)C)cc3F)CC2)cc1 [Example 1.74] |
| 100 | CC(=O)N[C@@H](C)c1ccc(C2CCN(c3cccc(C(F)(F)F)n3)CC2)cc1 [Example 4.19] |
| 8200 | CC(=O)N[C@@H](C)c1ccc(C2CCN(c3ncc(-c4ccccc4CC#N)cn3)CC2)cc1 [Example 10.97] |
| 120 | C[C@H](NC(=O)C1CC1)c1ccc(C2CCN(c3ccc(OCCC4CC4)cc3)CC2)cc1 [Example 1.143] |
| 5200 | CC(=O)N[C@@H](C)c1ccc(C2CCN(c3ccc4c(n3)C(=O)CC4)CC2)cc1 [Example 5.27] |
| 120 | CC(=O)N[C@@H](C)c1ccc(C2CCN(c3ncc(-c4ccc(C)cc4)cc3F)CC2)cc1 [Example 10.315] |
| 610 | CCCN(C)c1cc(N2CCC(c3ccc([C@H](C)NC(C)=O)cc3)CC2)ncn1 [Example 11.68] |
| 25400 | CC(=O)N[C@@H](C)c1ccc(C2CCN(c3ncc(C(=O)NCCS(C)(=O)=O)cn3)CC2)cc1 [Example 18.64] |
| 1500 | CC(=O)N[C@@H](C)c1ccc(C2CCN(c3ccnc(OCc4ccccc4)n3)CC2)cc1 [Example 11.23] |
| 690 | CCC(CC)Oc1cccc(N2CCC(c3ccc([C@H](C)NC(C)=O)cc3)CC2)c1 [Example 9.16] |
| 90 | CCCCOc1ccc(N2CCC(c3ccc([C@H](C)NC(C)=O)cc3)CC2)cc1 [Example 1.3] |
| 6000 | CC(=O)N[C@@H](C)c1ccc(C2CCN(c3cc(N[C@H](C)C(C)C)ncn3)CC2)cc1 [Example 11.76] |
| 300 | CCCC(C)Oc1cccc(N2CCC(c3ccc([C@H](C)NC(C)=O)cc3)CC2)c1 (stereo partly shown) [Example 9.2] |
| 1300 | CCOc1ccc(N2CCC(c3ccc(CC(C)NC(C)=O)cc3)CC2)c(C#N)c1 (stereo not shown) [Example 2.11] |

| IC50 [nM] | SMILES |
| --- | --- |
| 260 | CC(=O)N[C@@H](C)c1ccc(C2CCN(c3ncc(C(F)(F)F)cc3Cl)CC2)cc1 [Example 5.16] |
| 210 | CC(=O)N[C@@H](C)c1ccc(C2CCN(c3ccc4c(c3)OCC(C)(C)CO4)CC2)cc1 [Example 1.61] |
| 2100 | COc1ccc(N2CCC(c3ccc([C@H](C)NC(C)=O)cc3)CC2)cc1C [Example 1.160] |
| 990 | CC(=O)N[C@@H](C)c1ccc(C2CCN(c3ccc4nc(C)oc4c3)CC2)cc1 [Example 15.15] |
| 200 | C[C@H](NC(=O)C1CC1)c1ccc(C2CCN(c3ncnc(N4CCCC4)c3F)CC2)cc1 [Example 11.123] |
| 530 | C[C@H](NC(=O)N(C)C)c1ccc(C2CCN(c3ncc(-c4ccoc4)cn3)CC2)cc1 [Example 10.113] |
| 60 | CC(=O)N[C@@H](C)c1ccc(C2CCN(c3ccnc(Oc4ccccc4)c3)CC2)cc1 [Example 3.12] |
| 320 | CC(=O)N[C@@H](C)c1ccc(C2CCN(c3ncc(-c4ccc5c(ccn5C)c4)cn3)CC2)cc1 [Example 10.25] |
| 3200 | CCCC(C)Oc1ccc(N2CCC(c3ccc([C@H](C)NC(C)=O)cc3)CC2)cc1C#N (stereo partly shown) [Example 8.57] |
| 100 | C[C@H](NC(=O)N(C)C)c1ccc(C2CCN(c3ccc(OC4CCCC4)cc3)CC2)cc1 [Example 1.125] |
| 7400 | CCOc1ccc(N2CCC(c3ccc(C4(NC(C)=O)CC4)cc3)CC2)cc1 [Example 3.20] |
| 3300 | CC(=O)N[C@@H](C)c1ccc(C2CCN(c3ccc(OCC4CCC4)c(C#N)c3)CC2)cc1 [Example 9.36] |
| 130 | CC(C)COc1ccc(N2CCC(c3ccc([C@H](C)NC(=O)C4CC4)cc3)CC2)cc1 [Example 1.114] |
| 600 | CC(=O)N[C@@H](C)c1ccc(C2CCN(c3ccc(OC4COC4)cc3)CC2)cc1 [Example 8.9] |
| 600 | CC(C)Oc1cc(N2CCC(c3ccc([C@H](C)NC(=O)C4CC4)cc3)CC2)ncn1 [Example 20.1, (S)-Cyclopropanecarboxylic acid (1-{4-[1-(6-isopropoxy-pyrimidin-4-yl)-piperidin-4-yl]-phenyl}-ethyl)-amide] |
| 250 | CC(=O)N[C@@H](C)c1ccc(C2CCN(c3cc(OCCC4CC4)ncn3)CC2)cc1 [Example 11.3] |
| 540 | CC(=O)N[C@@H](C)c1ccc(C2CCN(c3ccnc(N(C)C(C)C)n3)CC2)cc1 [Example 11.47] |
| 15200 | CC(=O)N[C@@H](C)c1ccc(C2CCN(c3ncc(C(=O)NC4COC4)cn3)CC2)cc1 [Example 18.39] |
| 960 | CC(=O)NC(C)Cc1ccc(C2CCN(c3ccc(OCC4CC4)cc3)CC2)cc1 (stereo not shown) [Example 2.8] |
| 4300 | CC(=O)N[C@@H](C)c1ccc(C2CCN(c3ccnc(Nc4cncnc4)n3)CC2)cc1 [Example 11.117] |
| 2600 | CC(=O)N[C@@H](C)c1ccc(C2CCN(c3cc(NC4CCCC4)ncn3)CC2)cc1 [Example 11.103] |
| 15600 | C[C@H](NC(=O)C1CC1)c1ccc(C2CCN(c3ncc(C4CC4)cn3)CC2)cc1 [Example 4.303] |

| IC50 [nM] | SMILES |
| --- | --- |
| 90 | CCC(C)Oc1cc(N2CCC(c3ccc([C@H](C)NC(C)=O)cc3)CC2)ccn1 (stereo partly shown) [Example 19.13] |
| 860 | CC(=O)N[C@@H](C)c1ccc(C2CCN(c3ccc(OCC4(CC#N)CC4)cc3)CC2)cc1 [Example 27.3] |
| 100 | C[C@H](NC(=O)C1CC1)c1ccc(C2CCN(c3ncc(-c4ccccc4)cn3)CC2)cc1 [Example 10.105] |
| 1900 | CCNc1ccc(N2CCC(c3ccc([C@H](C)NC(C)=O)cc3)CC2)cc1 [Example 24.2] |
| 70 | CCCOc1ccc(N2CCC(c3ccc([C@H](C)NC(=O)N(C)C)cc3)CC2)c(C#N)c1 [Example 1.123] |
| 110 | COc1cc(OC2CCC2)ccc1N1CCC(c2ccc([C@H](C)NC(C)=O)cc2)CC1 [Example 1.37] |
| 23700 | CC(=O)N[C@@H](C)c1ccc(C2CCN(c3ncc(C(=O)NCC4CCN(c5ccccc5)C4)cn3)CC2)cc1 (stereo partly shown) [Example 18.67] |
| 3900 | CCC(NC(C)=O)c1ccc(C2CCN(c3ccnc(Oc4ccccc4)c3)CC2)cc1 (stereo not shown) [Example 15.19] |
| 27400 | COc1ccc(COc2cc(N3CCC(c4ccc([C@H](C)NC(C)=O)cc4)CC3)ccn2)cc1 [Example 19.35] |
| 1500 | CC(=O)N[C@@H](C)c1ccc(C2CCN(c3ncccn3)CC2)cc1 [Example 4.45] |
| 14000 | CC(=O)N[C@@H](C)c1ccc(C2CCN(c3ncc(C(=O)N(C)CC#N)cn3)CC2)cc1 [Example 18.42] |
| 180 | CC(C)Oc1cc(N2CCC(c3ccc([C@H](C)NC(=O)N(C)C)cc3)CC2)ncn1 [Example 20.3] |
| 860 | CC(=O)N[C@@H](C)c1ccc(C2CCN(c3ccc(C(=O)C4CC4)cn3)CC2)cc1 [Example 5.21] |
| 110 | CC(=O)N[C@@H](C)c1ccc(C2CCN(c3ccc(OC4CCCC4)c(Cl)c3)CC2)cc1 [Example 8.39] |
| 110 | CCC(=O)N[C@@H](C)c1ccc(C2CCN(c3ccc(OC4CC4)cc3)CC2)cc1 [Example 1.151] |
| 16300 | CC(=O)N[C@@H](C)c1ccc(C2CCN(c3ccc(Cl)cc3C#N)CC2)cc1 [Example 1.171] |
| 1100 | CC(=O)N[C@@H](C)c1ccc(C2CCN(c3ccc(OCC4CCO4)c(Cl)c3)CC2)cc1 (stereo partly shown) [Example 8.50] |
| 4300 | CC(=O)N[C@@H](C)c1ccc(C2CCN(c3ncc(C4=CCC5(CC4)OCCO5)cn3)CC2)cc1 [Example 10.93] |
| 300 | CCOc1cc(N2CCC(c3ccc([C@H](C)NC(=O)OC)cc3)CC2)ccn1 [Example 1.11] |
| 3600 | CC(=O)N[C@@H](C)c1ccc(C2CCN(c3ncc(C(=O)Nc4ccccc4C)cn3)CC2)cc1 [Example 18.7] |
